Assay results reported in patent publication US11612586B2, “Indole regulation of antigen presenting cells” (THE TEXAS A&M UNIVERSITY SYSTEM, priority 2016, dated 2023).

Key:
Type in all cases: cell-based, mouse
[1] = test system: IL-12; assay: IL-12 production in BMDMs, intracellular staining, flow cytometry; settings: BMDMs, 1 mM TDMM 24 hours, LPS 1 ug/ml 4 hours
Experimental: (§1) BMDMs were treated with indole or DMF control for 18 hours or 4 hours, followed by stimulation with LPS (2 ug/ml or 250 ng/ml) for 4 hours in the presence of Golgiplug. BMDMs were then stained for intracellular TNF or IL-12 and analyzed by flow cytometry.
(§2) First, pro-inflammatory cytokine production in macrophages was investigated. […] In the DC study described herein, DCs were typically conditioned with indole during their development from bone marrow precursors in order to mimic the proximity of DC progenitor cells to indole in the intestinal microenvironment during development. […] BMDMs were treated for 18 hours with indole, followed by a 4 hour stimulation with either a very high (2 ug/ml) or low (250 ng/ml) dose of LPS.
(§3) Additionally, to determine if recently arrived macrophage precursors might also be affected, BMDMs were next treated for just 4 hours with indole, followed by a […] stimulation with the same LPS concentrations.
(§4) To address the question of indole and AhR dependence in macrophages, experiments using BMDMs derived from AhR-knockout mice were run alongside wild-type littermate controls. Specifically, flow cytometric analysis of BMDMs was performed on WT or AhR-KO mice and treated with indole or DMF control for 18 hours. BMDMs were stimulated for 4 hours with LPS (50 ng/ml) in the presence of Golgiplug, then stained for intracellular TNF (left panels) and IL-12 (right panels).
(§5) The inventors performed a series of assays where bone marrow derived macrophages (BMDMs), bone marrow derived dendritic cells (BMDCs), and splenic dendritic cells (splenic DCs), were exposed to a series of TDMMs, including indole, indole-3-acetate (I3AT), 5-hydroxyindole (5HI), and indole-3-pyruvate (I3P), as well as indole-3-carbinol (I3C; a plant derived compound) to be used for a positive control (1 mM for 24 hours). The BMDMs and BMDCs were stimulated with LPS for 4 hours and assayed at day 7 for expression of various pro-inflammatory cytokines. In a similar assay, the BMDMs and BMDCs were stimulated with LPS or CpG, respectively, for 15 minutes and assayed for pAKT and pERK signaling, which is a reflection of pro-inflammatory response.
(§6) Bone marrow was harvested as described above and cultured at a density of 1×10^6 cells in 10 ml complete media supplemented with 10 ng/ml M-CSF (Peprotech) in 100 mm×15 mm petri dishes. Media with cytokine was replenished on day 3. Adherent and semi-adherent cells were recovered on day 7, plated, and treated with indole prior to downstream experiments.

[2] = test system: Akt; assay: phospho-Akt in BMDCs, flow cytometry; settings: BMDCs, 1 mM TDMM 24 hours, CpG (5 uM) 15 minutes
Experimental: Flow cytometric analysis was performed on BMDCs conditioned with indole from day 3 of culture and subsequently stimulated with LPS (5 ug/ml) for the given times. Cells were stained for phospho-Akt and analyzed by flow cytometry.
Flow cytometric analysis was performed on BMDCs from WT or AhrKO mice cultured in the presence of indole (1 mM) from day 3. DCs were stimulated with LPS (5 ug/ml) for the given times and stained for phospho-Akt, which was detected by flow cytometry. Percentage of pAkt-positive DCs indicated. Representative data is from one of three independent experiments.
Another central mediator of cellular signaling is the serine/threonine kinase, Akt (also referred to as protein kinase B), which regulates cellular processes including metabolism, growth, proliferation, and survival. The Akt pathway is activated by numerous receptor tyrosine kinases, cytokine receptors, G-protein-coupled receptors, and other molecules which activate the lipid kinase PI3K and result in production of phosphatidylinositol (3,4,5)-trisphosphate (PIPS). This second messenger acts as a docking site at the plasma membrane for Akt where phosphorylation and activation occurs. Akt is located upstream of NF-kB and can induce NF-kB signaling via phosphorylation of IKKα and Tp12. The effect of indole on Akt phosphorylation was assessed to determine whether indole's inhibition of NF-kB might be a secondary effect due to modulation of an upstream target.
as §5

[3] = test system: TNF; assay: TNF production in BMDMs, intracellular staining, flow cytometry; settings: BMDMs, 1 mM TDMM 24 hours, LPS 1 ug/ml 4 hours
Experimental: as §1, §2, §3, §4, §5, §6

[4] = test system: Erk; assay: pERK signaling in BMDCs; settings: 1 mM TDMM 24 hours, CpG (5 uM) 15 minutes
Experimental: as §5

[5] = test system: Akt; assay: phospho-Akt signaling in BMDMs; settings: 1 mM TDMM 24 hours, LPS 1 ug/ml 15 minutes
Experimental: (§7) The PI3K/Akt and MAPK/Erk signaling pathways regulate many cellular processes including survival, apoptosis, growth, and cytokine production. […] Specifically, BMDMs were treated with indole (1 mM) or DMF control for 18 hours, then stimulated with LPS (10 ug/ml) or CpG (5 uM) for 30 minutes. Cells were stained for phospho-Akt or phospho-Erk and analyzed by flow cytometry.
as §5

[6] = test system: TNF; assay: TNF production in BMDCs, intracellular staining, flow cytometry; settings: 1 mM TDMM 24 hours, LPS (1 ug/ml) 4 hours
Experimental: Intracellular staining was performed to assess TNF production.
(§8) Intracellular staining was performed to assess TNF (FIG. 3A) and IL-12 (FIG. 3B) production.
(§9) Briefly, bone marrow was harvested from femurs of mice and cultured for 7 days in the presence of DC-skewing cytokines, GM-CSF and IL-4. […] The pro-inflammatory cytokines, IL-6 and IL-12, were specifically queried. […] Immune cells communicate largely through the production of soluble factors including cytokines, and DCs detect these signals and determine their effector functions accordingly.
as §5

[7] = test system: Erk; assay: phospho-Erk signaling in BMDMs; settings: 1 mM TDMM 24 hours, LPS 1 ug/ml 15 minutes
Experimental: as §7, §5

[8] = test system: IL-12; assay: IL-12 production in BMDCs, intracellular staining, flow cytometry; settings: BMDCs, 1 mM TDMM 24 hours, LPS (1 ug/ml) 4 hours
Experimental: as §8, §9, §5

[9] = test system: Stat3; assay: IL-6 induced pSTAT3 signaling in splenic DCs; settings: for IL-6 induced pSTAT3 signaling in splenic DCs: TDMM 24 hours, 10 ng/ml IL-6 30 minutes; for IL-6 induced pSTAT3 expression, CD4+ DCs / IL-6 induced pSTAT3 expression, CD4− DCs: splenic DCs, 1 mM TDMM 24 hours, IL-6 (10 ng/ml) 30 minutes
Experimental: Briefly, flow cytometric analysis was performed on splenic DCs conditioned with the indicated TDMMs for 24 hours and then subsequently stimulated with 10 ng/ml IL-6 for 30 minutes.

[10] = test system: B220 (CD45R); assay: B220 surface expression on BMDCs; settings: BMDCs cultured from day 3 with indole (1 mM) or retinoic acid (1 μM)
Experimental: (§10) FIGS. 12A and 12B graphically illustrate that indole induces CCR9 and B220 on DCs. BMDCs were cultured in the presence of indole (1 mM), retinoic acid (1 μM), or DMF solvent control from day 3. On day 7, DCs were surface stained for expression of CCR9 and B220 and analyzed by flow cytometry. […] Mean of three independent experiments. * indicates p<0.05 for one-way ANOVA followed by Dunnett's post-test.
An indole-induced upregulation of the B220 (CD45R) antigen was also observed (FIGS. 12A and 12B), which is widely used to distinguish the plasmacytoid DC lineage and is believed to contribute to gut homing. However, more recently B220 has been reported to distinguish a DC subset more closely developmentally related to conventional rather than plasmacytoid DCs and a precursor to resident CD8+ and CD8− conventional DCs.

[11] = test system: CCR9; assay: CCR9 surface expression on BMDCs; settings: BMDCs cultured from day 3 with indole (1 mM) or retinoic acid (1 μM), day 7
Experimental: as §10
Dendritic cell subsets bear numerous surface antigens that regulate their migration and localization. Because indole is produced in the gut and appears to induce anti-inflammatory properties in DCs (as described above), it was hypothesized that indole might affect migration and retention in mucosal tissues. Thus, expression of the gut homing marker, chemokine receptor CCR9 was investigated. […] Retinoic acid (RA) was included as a positive control. RA is present in murine plasma at approximately […] and is predicted to exist at higher concentrations in tissue microenvironments in vivo. Thus, 1 uM was used as a conservative estimate of relevant physiological concentration. Indole's effect was even more profound than that of retinoic acid, a known inducer of mucosal homing markers on T cells (see, e.g., Iwata M, et al. (2004) Retinoic Acid Imprints Gut-Homing Specificity on T Cells. Immunity 21(4):527-538). […]

[12] = test system: naïve CD4+CD25− T cells; assay: DC-T cell co-culture without cell contact (Transwell): Treg induction; settings: exogenous TGF-β added, 3 days
Experimental: Transwell tissue culture plates were used to perform co-cultures with a physical barrier between the two cell types. Naïve CD4+CD25− T cells were FACS-sorted and placed in the bottom of a 24-well Transwell cell culture plate with 0.4 uM polycarbonate membranes that had been coated with α-CD3 (5 ug/ml) and α-CD28 (2 ug/ml). TGF-β was added at the indicated concentrations. […] The T cell to DC ratio was 2:1, as in other co-culture experiments. After 3 days, T cells were stained for Foxp3 and analyzed by flow cytometry.
Naïve CD4+CD25− T cells were FACS-sorted and placed in the bottom of a 24-well Transwell cell culture plate with 0.4 uM polycarbonate membranes (Corning) that had been coated with 5 μg/mL αCD3 (BioXcell 145-2C11) and 2 μg/mL αCD28 (BioXcell 37.51). TGF-β was added at the indicated concentrations. The insert was placed in the well and washed, Day 3-treated BMDCs were added to the top chamber such that culture media was shared, but the cell types were kept physically separate. The T cell to DC ratio was 2:1, as in other co-culture experiments.

[13] = test system: naïve CD4+CD25− T cells; assay: T cell activation in the presence of BMDC supernatant: Treg induction; settings: T cells on α-CD3/α-CD28 plates, 72 hours
Experimental: Specifically, naïve CD4+CD25− T cells were FACS-sorted and plated in 96-well, α-CD3 and α-CD28-coated tissue culture plates in a volume of 100 ul cell culture media. […] T cells with DC supernatant were cultured for 72 hours in the presence or absence of exogenous TGF-β. Subsequently, cells were stained for the transcription factor Foxp3 and analyzed by flow cytometry.
Naïve CD4+CD25− T cells were FACS-sorted as described above and plated in 96-well, αCD3 and αCD28-coated tissue culture plates in a volume of 100 ul cell culture media. An equal volume of spent BMDC supernatant was added, in the presence or absence of exogenous TGF-β, and T cells were cultured for 72 hours. To generate supernatants, day 3-treated BMDCs were collected on day 7, washed extensively and plated in a 48-well cell culture plate at 5×10^5 cells per well in 500 ul fresh complete media for 24 hours in the presence or absence of 1 ug/ml LPS. Plates were then centrifuged and supernatants were collected, filtered, and stored at −20° C. until use.

[14] = test system: CCR9; assay: CCR9 induction on naïve T cells by conditioned DCs; settings: no exogenous RA in the co-culture
Experimental: FIG. 18 graphically illustrates that indole-conditioned DCs induce CCR9 on naïve T cells upon activation. Naïve CD4+CD25− T cells from OT-II mice were co-cultured with OVA323-339 peptide-loaded BMDCs for 72 hours in the presence of RA as indicated. BMDCs were previously treated with indole, RA, or DMF from day 3. Following 3 days of co-culture, surface staining was performed for flow cytometric analysis.
Based on the observation that indole induces gut homing markers on developing DCs, it was queried whether indole-conditioned DCs could also confer gut homing markers upon naïve CD4+ T cells. The antigen-specific T cell activation model was used to address this question, and a titration of RA was included as a positive control to induce CCR9. […] Just 10 nM of RA enabled indole-DC co-cultures to achieve over 50% of T cells expressing CCR9 which was similar to RA-DC positive controls, whereas DMF-DC co-cultures with the same concentration of RA added achieved only 10% of CCR9+ T cells.
Naïve CD4+CD25− T cells of spleen and lymph nodes from OT-II mice were isolated by negative selection via column purification using the Naïve CD4+ T Cell Isolation Kit (Miltenyi Biotec). Naïve CD4+ T cells (>96% pure) were labeled with Cell Proliferation Dye efluor450 (eBioscience) following manufacturer's instructions then co-cultured with OVA peptide-loaded BMDCs at a ratio of 2:1 for 72 hours in a 96-well round-bottom tissue culture plate. BMDCs were previously treated with indole or RA from day 3. On day 7, DCs were washed extensively prior to being loaded with OVA323-339 peptide (10 ug/ml) for 1 hour at 37° C. BMDCs were then washed three times and plated with naïve CD4+ T cells. RA or TGFβ were added to co-cultures as indicated. Following 3 days of culture, cells were stained with antibodies to CD4, CCR9, and LPAM-1 (α4β7). Intracellular staining for Foxp3 was performed using a Foxp3 staining kit (eBioscience). The remaining CD4+ helper T cell lineages Th1, Th2, and Th17 were identified by their cytokine production. […]

O=C(O)Cc1c[nH]c2ccccc12 [I3AT, indole-3-acetate]
IL-12 [1]: reduction and ↓
pAKT [2]: reduced and ↓
TNF [3]: No effect
pERK [4]: reduced and ↓
pAKT [5]: No effect
TNF [6]: reduction and ↓
pERK [7]: No effect
IL-12 [8]: reduction and ↓
IL-6 induced pSTAT3 signaling in splenic DCs [9]: inhibits
IL-6 induced pSTAT3 expression, CD4+ DCs [9]: ↓
IL-6 induced pSTAT3 expression, CD4− DCs [9]: ↓

OCc1c[nH]c2ccccc12 [I3C, indole-3-carbinol, reference compound]
IL-12 [1]: ↓↓↓↓
pAKT [2]: ↓↓↓↓
TNF [3]: ↓↓↓↓
pERK [4]: ↓↓↓↓
pAKT [5]: ↓↓
TNF [6]: ↓↓↓↓
pERK [7]: ↓↓↓↓
IL-12 [8]: ↓↓↓
IL-6 induced pSTAT3 expression, CD4+ DCs [9]: ↓↓↓↓
IL-6 induced pSTAT3 expression, CD4− DCs [9]: ↓↓↓↓

CC1=C(/C=C/C(C)=C/C=C/C(C)=C/C(=O)O)C(C)(C)CCC1 [RA, all-trans retinoic acid, reference compound]
B220 (CD45R) expression on BMDCs [10]: does not induce B220
surface expression of CCR9 on conditioned DCs [11]: 22%
Treg induction by conditioned DCs without cell contact over solvent controls [12]: 3 fold
Treg induction by supernatant of conditioned BMDCs relative to solvent control DCs [13]: approximately 2 fold
induction of CCR9 on naïve T cells by conditioned BMDCs alone [14]: sufficient

Oc1ccc2[nH]ccc2c1 [5HI, 5-hydroxyindole]
pAKT [2]: reduced and ↓
pERK [4]: reduced and ↓
pAKT [5]: reduced and ↓
TNF [6]: reduction and ↓↓
pERK [7]: reduced and ↓
IL-12 [8]: reduction and ↓
IL-6 induced pSTAT3 signaling in splenic DCs [9]: inhibits
IL-6 induced pSTAT3 expression, CD4+ DCs [9]: ↓
IL-6 induced pSTAT3 expression, CD4− DCs [9]: ↓

O=C(O)C(=O)Cc1c[nH]c2ccccc12 [I3P, indole-3-pyruvate]
pAKT [2]: reduced and ↓
pERK [4]: reduced and ↓
pAKT [5]: No effect
TNF [6]: reduction and ↓
pERK [7]: No effect
IL-12 [8]: reduction and ↓
IL-6 induced pSTAT3 signaling in splenic DCs [9]: inhibits
IL-6 induced pSTAT3 expression, CD4+ DCs [9]: ↓
IL-6 induced pSTAT3 expression, CD4− DCs [9]: ↓
